# According to publication PMC4795166, “Design of a MCoTI-Based Cyclotide with Angiotensin (1-7)-Like Activity” (Molecules, 2016):
# Molecular target: T1, recombinant human MAS1 (Homo sapiens, UniProt P04201)
# T1 construct: expressed in transfected cells; host or cells: CHO cells stably transfected with pTEJ-8 vector
# T1 sequence (P04201 1-325): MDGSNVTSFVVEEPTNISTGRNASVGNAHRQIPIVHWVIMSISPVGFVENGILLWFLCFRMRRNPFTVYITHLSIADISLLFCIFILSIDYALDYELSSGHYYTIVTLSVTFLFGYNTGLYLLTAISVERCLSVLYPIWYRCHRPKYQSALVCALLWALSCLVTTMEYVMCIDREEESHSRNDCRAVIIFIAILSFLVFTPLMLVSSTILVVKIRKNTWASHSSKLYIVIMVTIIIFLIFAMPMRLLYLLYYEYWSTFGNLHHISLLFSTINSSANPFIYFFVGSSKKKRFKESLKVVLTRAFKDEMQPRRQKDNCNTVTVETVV
# Experiment: MAS1 receptor activation, cell-based fluorescence assay of NO release in CHO cells
# Details: absence of antagonist, MAS1 stably transfected CHO cells, 2 h incubation, two experiments
# Procedure: Next, we tested the ability of cyclotide MCo-AT1-7 to activate the MAS1 receptor using CHO cells stably transfected with pTEJ-8 vector expressing recombinant human MAS1 in a cell-based fluorescence assay to detect the amount of NO release (Figure 5). […] The activity of the cyclotide MCo-AT1-7 was estimated to be ≈90% of that of peptide AT1-7 at 10 nM in this assay.
# CHO cells stably transfected with pTEJ-8 vector expressing recombinant human MAS1 clone are grown to confluency. After washing, cells were incubated for a short time in 700 µL of supplemented Tyrode’s salts containing 10 µM 2-phenyl-4,4,5,5-tetramethylimidazoline-1-oxyl-3-oxide (PTIO), 100 µM 2,6-diaminonaftalene (DAN), and 1 mM L-arginine. When using antagonist for competition assays, cells are exposed to MAS1 antagonist A779 (D-Ala^7-AT 1-7) at 0.1 µM for 15 min before addition of the cyclotides to be tested. Different concentrations of the cyclotides to be analyzed are added to the cell medium and the plates are agitated for 1 min before being placed into the incubator for 2 h. After 2 h, the cellular supernatants are transferred to opaque 96 well plates, and the amount of released NO is measured by fluorescence (λex = 380 nm, λem = 425 nm).
compound,measurement,value
"CC[C@H](C)[C@H](NC(=O)[C@H](Cc1ccc(O)cc1)NC(=O)[C@@H](NC(=O)[C@H](CCCNC(=N)N)NC(=O)[C@@H](N)CC(=O)O)C(C)C)C(=O)N[C@@H](Cc1c[nH]cn1)C(=O)N1CCC[C@H]1C(=O)O [AT1-7, angiotensin (1-7)]",MAS1 activation: increase of intracellular NO concentration,increase the intracellular concentration of NO in a dose dependent manner
